We go through 14 compounds from patent US20250171432A1, “COMPOUNDS AND METHODS OF USE” (Tango Therapeutics, Inc., priority 2022, published 2025).

Holding throughout (format): cell-based
In assay [1] the test system is SDMA (PRMT5 activity) in HAP1 MTAP-deleted cell line. The assay can be described thus: SDMA in-cell western assay, HAP1 MTAP-deleted. Conditions: for IC50 / IC90: SDMA in-cell western, HAP1 MTAP-deleted cells, 24 hours compound incubation; for Hap1 MTAP intact/deleted ratio: ratio of SDMA IC50 in HAP1 MTAP-intact to HAP1 MTAP-deleted cell line. Here is the method: (§1) The SAM-cooperative PRMT5 inhibitor, GSK3326595, was sourced from SelleckChem and maintained as a 10 mM DMSO stock. All test compounds are maintained as 10 mM DMSO stocks
(§2) On Day 0, MTAP-intact or MTAP-deleted cells are seeded in a 384-well plate, and incubated in a humidified, 5% CO2 tissue culture incubator for 16-24 hours. On Day 1, the test compounds are dispensed to wells at defined concentrations using a Tecan D300e digital dispenser (n=4), and the volume of DMSO is normalized to highest class volume. Each plate includes wells dosed with defined concentrations of GSK33226595 as a plate control. The compounds are incubated with cells for 24 hours in a humidified, 5% CO2 tissue culture incubator.
(§3) On Day 2, the compound-treated cells are fixed with a final concentration of 4% formaldehyde. The cells are then washed/permeabilized with 1×PBS+0.1% Triton X-100, and then blocked with 5% goat serum/1×TBS.
(§4) The cells are washed with 1×PBS+0.1% Triton X-100, and then washed again with ddH20. The plates are then imaged using a NIR fluorescent imager (LiCor Odyssey).
(§5) For data analysis, the SDMA signal is normalized to the DRAQ5 signal. Assay background is determined by the signal from wells treated with 1 μM GSK3326595, and subtracted from every well. The data are plotted as % of the DMSO control wells for the MTAP-intact and the MTAP-deleted cell lines independently, and fitted to the 4-parameter logistic (4-PL) Hill equation with maximal effect constrained to 0. The fit was performed using GraphPad Prism or the default IC50 fitting procedure in Dotmatics Studies 5.4 as part of a customized data analysis protocol.

The subject of assay [2] is SDMA (PRMT5 activity) in HAP1 MTAP-intact cell line. The experiment in a line: SDMA in-cell western assay, HAP1 MTAP-intact. Conditions: SDMA in-cell western, HAP1 MTAP-intact cells, 24 hours compound incubation. Here is the method: as §1, §2, §3, §4, §5
The test system of assay [3] is HAP1 MTAP-deleted cell line. The experiment in a line: Viability assay (CellTiter-Glo), HAP1 MTAP-deleted. Conditions: HAP1 MTAP-deleted cells, 7 days. How it is done:
All test compounds are maintained as 10 mM DMSO stocks.
On Day 0, MTAP-intact and MTAP-deleted cells are seeded in a 96-well plate, and incubated in a humidified, 5 or 10% CO2 tissue culture incubator for 16-24 hours. On Day 1, the test compounds are dispensed to wells at defined concentrations using a Tecan D300e digital dispenser (n=3), and the volume of DMSO is normalized to highest class volume (0.2%). The compound-treated plates are incubated for 7 days in a humidified, 5 or 10% CO2 tissue culture incubator.
On Day 7, the plates are removed from the tissue culture incubator and allowed to equilibrate to room temperature. Then either a ½% volume CellTiter-Glo Luminescent Cell Viability Assay reagent (Promega G7572) is added to each well, or the media is removed from every well and a 1:3 dilution of CellTiter-Glo 2.0 Cell Viability Assay reagent (Promega G9241) in 1×PBS is added. Ten minutes after addition, the luminescent signal is detected by an Envision plate reader. The data are plotted as % of the DMSO control wells for the MTAP-intact and the MTAP-deleted cell lines independently, and fitted to the 4-parameter logistic (4-PL) Hill equation with maximal effect constrained to 0. The fit was performed using GraphPad Prism or the default IC50 fitting procedure in Dotmatics Studies 5.4 as part of a customized data analysis protocol.

In the case of `COc1ncc(NC(=O)C(=O)N2C[C@@H](C)CC[C@@H]2c2ccc3sc(C[C@H]4CCN(C)C[C@@H]4C)nc3c2)cc1C(N)=O` (racemic) [Compound 64, 5-(2-((2R,5S)-2-(2-((1,3-dimethylpiperidin-4-yl)methyl)benzo[d]thiazol-5-yl)-5-methylpiperidin-1-yl)-2-oxoacetamido)-2-methoxynicotinamide], the IC50 was less than 5 nM in assay [1] (Homo sapiens); greater than 50 nM in assay [2] (Homo sapiens, HAP1, 24 h); less than 100 nM in assay [3] (Homo sapiens, 168 h). The same compound came in with an IC90 in assay [1] (Homo sapiens) of less than 75 nM. The “Hap1 MTAP intact/deleted ratio” value in assay [1] is recorded as “A (“A” indicates an IC50 ratio greater than or equal to 30 fold)”.
`COc1ncc(NC(=O)C(=O)N2C[C@@H](C)CC[C@@H]2c2ccc3sc(C4(C)CCN(C)CC4)nc3c2)cc1C(N)=O` [Compound 122, 5-(2-((2R,5S)-2-(2-(1,4-dimethylpiperidin-4-yl)benzo[d]thiazol-5-yl)-5-methylpiperidin-1-yl)-2-oxoacetamido)-2-methoxynicotinamide]: the IC50 in assay [1] (Homo sapiens) is less than 5 nM; in assay [2] (Homo sapiens), greater than 50 nM; in assay [3] (Homo sapiens, 168 h), less than 100 nM. Also, the 90% effect concentration (IC90) in assay [1] (Homo sapiens) is less than 75 nM. In addition, the “Hap1 MTAP intact/deleted ratio” value in assay [1] is “A (“A” indicates an IC50 ratio greater than or equal to 30 fold)”.
On to `CCc1cc(NC(=O)C(=O)N2C[C@@H](C)CC[C@@H]2c2cccc(N3CCC(N(C)C)CC3)c2)cnc1N` [Compound 9, N-(6-amino-5-ethylpyridin-3-yl)-2-((2R,5S)-2-(3-(4-(dimethylamino)piperidin-1-yl)phenyl)-5-methylpiperidin-1-yl)-2-oxoacetamide], for which the half-inhibitory concentration (IC50) in assay [1] (Homo sapiens) is less than 5 nM; in assay [2] (Homo sapiens, HAP1, 24 h) it was greater than 50 nM; in assay [3] (Homo sapiens, 168 h), less than 100 nM. The compound further yielded an IC90 in assay [1] (Homo sapiens) of less than 75 nM. Further, in assay [1], the “Hap1 MTAP intact/deleted ratio” value is “A (“A” indicates an IC50 ratio greater than or equal to 30 fold)”.
Take `CCc1cc(NC(=O)C(=O)N2C[C@@H](C)CC[C@@H]2c2ccc3sc(C4CN(C)C(C)(C)C4)nc3c2)cnc1N` (mixture of isomers) [Compound 13, N-(6-amino-5-ethylpyridin-3-yl)-2-((2R,5S)-5-methyl-2-(2-(1,5,5-trimethylpyrrolidin-3-yl)benzo[d]thiazol-5-yl)piperidin-1-yl)-2-oxoacetamide]: the IC50 in assay [1] (Homo sapiens) is less than 5 nM; in assay [2] (Homo sapiens, HAP1, 24 h) it was 5 to 50 nM; in assay [3] (Homo sapiens, 168 h), less than 100 nM. The compound also gave an IC90 in assay [1] (Homo sapiens) of less than 75 nM. Besides, the “Hap1 MTAP intact/deleted ratio” value in assay [1] is “C (“C” indicates an IC50 ratio of less than 15 fold)”.
Consider `CCc1cc(NC(=O)C(=O)N2C[C@@H](C)CC[C@@H]2c2ccc3nn(CCN(C)C)cc3c2)cnc1N` [Compound 72], for which the IC50 was 5 to 50 nM in assay [1] (Homo sapiens); greater than 50 nM in assay [2] (Homo sapiens, HAP1, 24 h); less than 100 nM in assay [3] (Homo sapiens, 168 h). Also, the IC90 in assay [1] (Homo sapiens) was greater than 125 nM. Also, in assay [1], the “Hap1 MTAP intact/deleted ratio” value was “A (“A” indicates an IC50 ratio greater than or equal to 30 fold)”.
As for `C[C@H]1CC[C@H](c2ccc3sc(C4CCN(C)CC4)nc3c2)N(C(=O)C(=O)Nc2cnc(F)c(C(N)=O)c2)C1` [Compound 8, 2-fluoro-5-(2-((2R,5S)-5-methyl-2-(2-(1-methylpiperidin-4-yl)benzo[d]thiazol-5-yl)piperidin-1-yl)-2-oxoacetamido)nicotinamide], the IC50 in assay [1] (Homo sapiens) is less than 5 nM; in assay [2] (Homo sapiens, HAP1, 24 h), greater than 50 nM; in assay [3] (Homo sapiens, 168 h), less than 100 nM. The IC90 in assay [1] (Homo sapiens) is less than 75 nM. In addition, in assay [1], the “Hap1 MTAP intact/deleted ratio” value was “B (“B” indicates an IC50 ratio greater than or equal to 15 fold but lower than 30 fold)”.
In the case of `CCc1cc(NC(=O)C(=O)N2C[C@@H](C)CC[C@@H]2c2ccc3cn(C4CN(C)CC(C)(C)C4)nc3c2)cnc1N` (single isomer, unassigned) [Compound 114], in assay [1], the IC50 is less than 5 nM, the IC90 is less than 75 nM and the “Hap1 MTAP intact/deleted ratio” value is given as “B (“B” indicates an IC50 ratio greater than or equal to 15 fold but lower than 30 fold)”. The IC50 in assay [2] lay in the range of 5 to 50 nM. The compound further showed an IC50 in assay [3] of less than 100 nM.
On to `CCc1cc(NC(=O)C(=O)N2C[C@@H](C)CC[C@@H]2c2ccc3sc([C@@H]4C[C@@H]5CN(C)C[C@@H]5C4)nc3c2)cnc1N` (single isomer, unassigned) [Compound 111], for which the IC50 in assay [1] (Homo sapiens) is less than 5 nM; in assay [2] (Homo sapiens, HAP1, 24 h), greater than 50 nM; in assay [3] (Homo sapiens, 168 h), less than 100 nM. In assay [1] (Homo sapiens), this compound returned an IC90 of less than 75 nM. In addition, the “Hap1 MTAP intact/deleted ratio” value in assay [1] was “B (“B” indicates an IC50 ratio greater than or equal to 15 fold but lower than 30 fold)”.
Taken in the same sequence, the figures for `CCc1cc(NC(=O)C(=O)N2C[C@@H](C)CC[C@@H]2c2ccc3cn(C4CCN(C)C(C)(C)C4)nc3c2)cnc1N` (single isomer, unassigned) [Compound 48] were less than 5 nM, 5 to 50 nM, less than 100 nM, less than 75 nM and “C (“C” indicates an IC50 ratio of less than 15 fold)”.
The matching figures for `COc1ncc(NC(=O)C(=O)N2C[C@@H](C)CC[C@@H]2c2cccc(OC[C@@H](C)N(C)C)c2)cc1C(N)=O` [Compound 49, 5-(2-((2R,5S)-2-(3-((R)-2-(dimethylamino)propoxy)phenyl)-5-methylpiperidin-1-yl)-2-oxoacetamido)-2-methoxynicotinamide]: less than 5 nM, greater than 50 nM, 100 to 1000 nM, less than 75 nM and “A (“A” indicates an IC50 ratio greater than or equal to 30 fold)”.
With `COc1ncc(NC(=O)C(=O)N2C[C@@H](C)CC[C@@H]2c2ccc3sc([C@@H]4C[C@@H]5CN(C)C[C@@H]5C4)nc3c2)cc1C(N)=O` (single isomer, unassigned) [Compound 82], the IC50 in assay [1] (Homo sapiens) was less than 5 nM; in assay [2] (Homo sapiens, HAP1, 24 h), greater than 50 nM; in assay [3] (Homo sapiens, 168 h) it was less than 100 nM. In assay [1] (Homo sapiens), the IC90 was less than 75 nM. Also, the “Hap1 MTAP intact/deleted ratio” value in assay [1] was “A (“A” indicates an IC50 ratio greater than or equal to 30 fold)”.
`COc1ncc(NC(=O)C(=O)N2C[C@@H](C)CC[C@@H]2c2ccc3sc([C@H]4C[C@@H]5CN(C)C[C@@H]5C4)nc3c2)cc1C(N)=O` (single isomer, unassigned) [Compound 67]: the IC50 was less than 5 nM in assay [1] (Homo sapiens); greater than 50 nM in assay [2] (Homo sapiens, HAP1, 24 h); less than 100 nM in assay [3] (Homo sapiens, 168 h). In assay [1] (Homo sapiens), this compound showed an IC90 of less than 75 nM. For the same compound, the “Hap1 MTAP intact/deleted ratio” value in assay [1] is recorded as “A (“A” indicates an IC50 ratio greater than or equal to 30 fold)”.
The matching figures for `COc1ncc(NC(=O)C(=O)N2C[C@@H](C)CC[C@@H]2c2ccc3sc([C@H]4C[C@@H](N(C)C)C4)nc3c2)cc1C(N)=O` (single isomer, unassigned) [Compound 24]: less than 5 nM, greater than 50 nM, less than 100 nM, less than 75 nM and “A (“A” indicates an IC50 ratio greater than or equal to 30 fold)”.
The matching figures for `CCc1cc(NC(=O)C(=O)N2C[C@@H](C)CC[C@@H]2c2ccc3sc([C@@H]4C[C@@H](C)CN(C)C4)nc3c2)cnc1N` (racemic) [Compound 118, N-(6-amino-5-ethylpyridin-3-yl)-2-((2R,5S)-2-(2-(1,5-dimethylpiperidin-3-yl)benzo[d]thiazol-5-yl)-5-methylpiperidin-1-yl)-2-oxoacetamide]: less than 5 nM, 5 to 50 nM, less than 100 nM, less than 75 nM and “C (“C” indicates an IC50 ratio of less than 15 fold)”.
